Measured values taken from publication PMC12860872, “Preclinical evaluation of DOTAGA.Glu.(FAPI)2 and DO3A.Glu.(FAPI)2 as theranostics with human dosimetry extrapolation to lutetium-177 and terbium-161 analogs” (European Journal of Nuclear Medicine and Molecular Imaging, 2025).
Several values for one entry are separate records, joined by “and”; a condition that tells them apart may be missing. Equal values may be shown once.

What was measured:
PC3-mice = test: Organ clearance biological half-lives from biodistribution data; format: in vivo, mouse
Procedure: Blood samples were collected from the facial vein at 1, 3, 5, 7, 10, 15, 20, 30, 45, 60, 240, and 1440 min p.i., weighed, and measured for radioactivity using a γ-counter. Results were expressed as % I.A./g of blood and plotted over time. The initial and terminal half-lives were determined using Two-Phase Decay Model. The biological half-lives of selected organs were calculated from the biodistribution data using One-Phase Decay Model (GraphPad Prism 8).

[1] = Extrapolated human dosimetry (OLINDA/EXM, ICRP-89 phantoms); parameters: TIAC average pancreas: unit not given beside the values; TIAC average stomach / TIAC average Small Intestine / TIAC average Left Column / TIAC average Rectum / TIAC average adrenal / TIAC average bone / TIAC average Red marrow / TIAC average salivary glands / TIAC average ROB / TIAC average Total Frac IA / TIAC average heart content / TIAC average heart wall / TIAC average liver / TIAC average spleen / TIAC average lung / TIAC average kidney: unit not given here
Procedure: To address inter-animal variability, the TIACs for each source organ were calculated from both the mean nTACs and the nTACs obtainend from fitting the mean ± 1 standard deviation (SD) of the normalized time-activity data, providing upper and lower bounds.
The mice-to-human TIAC extrapolation accounted for species-specific differences in relative source organ masses, m(organ), as compared to the total body weight (WB), for the mice (m) and human (h) models respectively.
(§1) The human organ masses, m(organ)h, were obtained from ICRP-89 adult male and female reference phantoms, while the murine organ masses, m(organ)m, were derived from the standard MOBY mouse model. The extrapolated human TIACs, TIACh were entered in the OLINDA/EXM software to compute the absorbed doses to target organs and the effective dose for adult male, female, and gender-averaged human models. […]
The TIACs, for [177Lu]Lu-DOTAGA.Glu.(FAPI)2 and [177Lu]Lu-DO3A.Glu.(FAPI)2, were determined by time integration of the nTACs. To account for the inter-animal variability, the TIACs for each source organ were calculated using both the mean nTACs and the nTACs obtainend from fitting the mean ±1 standard deviation (SD) of the normalized time-activity data. This approach provided the upper and the lower bounds for the estimated TIACs.
The mice-to-human TIAC extrapolation was obtained considering the different (species-specific) relative source organ masses, m(organ), as compared to the total body weight (WB), for the mice (m) and human (h) models respectively.
as §1, with “the” for “ICRP-89”, “models phantoms defined in ICRP-89,” for “phantoms,”, “TIACs values, TIACh, for each source organ” for “TIACs, TIACh”, “input into the kinetic module of” for “entered in”, “software (version 2.1, HERMES Medical Solutions AB, Stockholm, Sweden)” for “software”

[2] = PC3-mice, One-Phase Decay Model
[3] = ICRP 89 Adult Female, extrapolated
[4] = ICRP 89 Adult Male, extrapolated
[5] = human extrapolation, male-female range

Bone clearance half-life, 95% confidence interval (PC3-mice; [2]): 27.60 to 33.77 h | Kidney clearance half-life, 95% confidence interval (PC3-mice; [2]): 23.41 to 38.84 h | Liver clearance half-life, 95% confidence interval (PC3-mice; [2]): 70.61 to 362.5 h | Pancreas clearance half-life, 95% confidence interval (PC3-mice; [2]): 16.87 to 39.95 h | Salivary glands clearance half-life, 95% confidence interval (PC3-mice; [2]): 12.06 to 34.90 h | Tumor clearance half-life, 95% confidence interval (PC3-mice; [2]): 19.85 to 32.80 h | tumor biological half-life (PC3-mice; PC3-tumors): 25.5 h | Absorbed dose (AD average) Adrenals [1, 3]: 1.46E-02 mGy/Mbq | Absorbed dose (AD average) Brain [1, 3]: 2.94E-02 mGy/Mbq | Absorbed dose (AD average) Breasts [1, 3]: 2.88E-02 mGy/Mbq | Absorbed dose (AD average) Esophagus [1, 3]: 3.06E-02 mGy/Mbq | Absorbed dose (AD average) Eyes [1, 3]: 2.94E-02 mGy/Mbq | Absorbed dose (AD average) Gallbladder Wall [1, 3]: 3.30E-02 mGy/Mbq | Absorbed dose (AD average) Heart Wall [1, 3]: 4.42E-02 mGy/Mbq | Absorbed dose (AD average) Left colon [1, 3]: 1.05E-01 mGy/Mbq | Absorbed dose (AD average) Ovaries [1, 3]: 3.09E-02 mGy/Mbq | Absorbed dose (AD average) Rectum [1, 3]: 1.07E-01 mGy/Mbq | Absorbed dose (AD average) Right colon [1, 3]: 6.88E-02 mGy/Mbq | Absorbed dose (AD average) Stomach Wall [1, 3]: 4.24E-02 mGy/Mbq | Absorbed dose (AD average) Thymus [1, 3]: 3.04E-02 mGy/Mbq | Absorbed dose (AD average) Thyroid [1, 3]: 2.95E-02 mGy/Mbq | Absorbed dose (AD average) Urinary Bladder Wall [1, 3]: 3.05E-02 mGy/Mbq | Absorbed dose (AD average) Uterus [1, 3]: 3.10E-02 mGy/Mbq | Effective dose (average) [1, 3]: 4.71E-02 | Absorbed dose (AD average) Adrenals [1, 4]: 1.17E-02 mGy/Mbq | Absorbed dose (AD average) Brain [1, 4]: 1.98E-02 mGy/Mbq | Absorbed dose (AD average) Esophagus [1, 4]: 2.11E-02 mGy/Mbq | Absorbed dose (AD average) Eyes [1, 4]: 1.97E-02 mGy/Mbq | Absorbed dose (AD average) Gallbladder Wall [1, 4]: 2.49E-02 mGy/Mbq | Absorbed dose (AD average) Heart Wall [1, 4]: 3.66E-02 mGy/Mbq | Absorbed dose (AD average) Left colon [1, 4]: 8.56E-02 mGy/Mbq | Absorbed dose (AD average) Prostate [1, 4]: 2.04E-02 mGy/Mbq | Absorbed dose (AD average) Rectum [1, 4]: 8.54E-02 mGy/Mbq | Absorbed dose (AD average) Right colon [1, 4]: 5.39E-02 mGy/Mbq | Absorbed dose (AD average) Stomach Wall [1, 4]: 3.05E-02 mGy/Mbq | Absorbed dose (AD average) Testes [1, 4]: 1.95E-02 mGy/Mbq | Absorbed dose (AD average) Thymus [1, 4]: 2.03E-02 mGy/Mbq | Absorbed dose (AD average) Thyroid [1, 4]: 2.02E-02 mGy/Mbq | Absorbed dose (AD average) Urinary Bladder Wall [1, 4]: 2.03E-02 mGy/Mbq | Effective dose (average) ([1]; ICRP 89 Adult Male, extrapolated, in mSv/MBq (unit assumed)): 3.40E-02 | absorbed dose kidneys [1, 5]: 0.04–0.05 Gy/GBq | absorbed dose liver [1, 5]: 0.16–0.20 Gy/GBq | absorbed dose salivary glands [1, 5]: 0.10–0.13 Gy/GBq | total body and effective doses [1, 5]: 0.033–0.044 Gy/GBq | TIAC average Left Column ([1]; human female, extrapolated): 0.1373 | TIAC average ROB ([1]; human female, extrapolated): 18.6076 | TIAC average Rectum ([1]; human female, extrapolated): 0.1420 | TIAC average Red marrow ([1]; human female, extrapolated): 0.2030 | TIAC average Small Intestine ([1]; human female, extrapolated): 0.1803 | TIAC average Total Frac IA ([1]; human female, extrapolated): 25.6850 | TIAC average adrenal ([1]; human female, extrapolated): 0.0011 | TIAC average bone ([1]; human female, extrapolated): 4.9073 | TIAC average heart content ([1]; human female, extrapolated): 0.0834 | TIAC average heart wall ([1]; human female, extrapolated): 0.0889 | TIAC average kidney ([1]; human female, extrapolated): 0.1445 | TIAC average liver ([1]; human female, extrapolated): 3.1244 | TIAC average lung ([1]; human female, extrapolated): 0.4651 | TIAC average pancreas ([1]; human female, extrapolated): 0.0460 | TIAC average salivary glands ([1]; human female, extrapolated): 0.1012 | TIAC average spleen ([1]; human female, extrapolated): 0.0480 | TIAC average stomach ([1]; human female, extrapolated): 0.0626 | TIAC average Left Column ([1]; human male, extrapolated): 0.1129 | TIAC average ROB ([1]; human male, extrapolated): 15.0586 | TIAC average Rectum ([1]; human male, extrapolated): 0.1129 | TIAC average Red marrow ([1]; human male, extrapolated): 0.2169 | TIAC average Small Intestine ([1]; human male, extrapolated): 0.1684 | TIAC average Total Frac IA ([1]; human male, extrapolated): 25.6850 | TIAC average adrenal ([1]; human male, extrapolated): 0.0009 | TIAC average bone ([1]; human male, extrapolated): 5.5459 | TIAC average heart content ([1]; human male, extrapolated): 0.0945 | TIAC average heart wall ([1]; human male, extrapolated): 0.0965 | TIAC average kidney ([1]; human male, extrapolated): 0.1339 | TIAC average liver ([1]; human male, extrapolated): 3.3017 | TIAC average lung ([1]; human male, extrapolated): 0.4829 | TIAC average pancreas ([1]; human male, extrapolated): 0.0441 | TIAC average salivary glands ([1]; human male, extrapolated): 0.1010 | TIAC average spleen ([1]; human male, extrapolated): 0.0456 | TIAC average stomach ([1]; human male, extrapolated): 0.0557
SMILES: N#C[C@@H]1CC(F)(F)CN1C(=O)CNC(=O)c1ccnc2ccc(OCCCCNC(=O)CC[C@H](NC(=O)CCC(C(=O)O)N3CCN(CC(=O)[O-])CCN(CC(=O)[O-])CCN(CC(=O)[O-])CC3)C(=O)NCCCCOc3ccc4nccc(C(=O)NCC(=O)N5CC(F)(F)C[C@H]5C#N)c4c3)cc12.[177Lu+3] (some centres unmarked) [[^177Lu]Lu-DOTAGA.Glu.(FAPI)2]
Absorbed dose (AD average) Kidneys [1, 3]: 4.97E-02 ± 0.002 mGy/Mbq and 4.97E-02 mGy/Mbq | Absorbed dose (AD average) Liver [1, 3]: 2.00E-01 ± 0.02 mGy/Mbq and 2.00E-01 mGy/Mbq | Absorbed dose (AD average) Lungs [1, 3]: 4.59E-02 ± 0.004 mGy/Mbq and 4.59E-02 mGy/Mbq | Absorbed dose (AD average) Osteogenic Cells [1, 3]: 8.92E-02 ± 0.01 mGy/Mbq and 8.92E-02 mGy/Mbq | Absorbed dose (AD average) Pancreas [1, 3]: 3.90E-02 ± 0.002 mGy/Mbq and 3.90E-02 mGy/Mbq | Absorbed dose (AD average) Red Marrow [1, 3]: 3.24E-02 ± 0.003 mGy/Mbq and 3.24E-02 mGy/Mbq | Absorbed dose (AD average) Salivary Glands [1, 3]: 1.26E-01 ± 0.004 mGy/Mbq and 1.26E-01 mGy/Mbq | Absorbed dose (AD average) Small Intestine [1, 3]: 5.84E-02 ± 0.02 mGy/Mbq and 5.84E-02 mGy/Mbq | Absorbed dose (AD average) Spleen [1, 3]: 3.53E-02 ± 0.01 mGy/Mbq and 3.53E-02 mGy/Mbq | Absorbed dose (AD average) Total Body [1, 3]: 4.42E-02 ± 0.01 mGy/Mbq and 4.42E-02 mGy/Mbq | Absorbed dose (AD average) Kidneys [1, 4]: 4.08E-02 ± 0.002 mGy/Mbq and 4.08E-02 mGy/Mbq | Absorbed dose (AD average) Liver [1, 4]: 1.64E-01 ± 0.01 mGy/Mbq and 1.64E-01 mGy/Mbq | Absorbed dose (AD average) Lungs [1, 4]: 3.74E-02 ± 0.003 mGy/Mbq and 3.74E-02 mGy/Mbq | Absorbed dose (AD average) Osteogenic Cells [1, 4]: 9.26E-02 ± 0.01 mGy/Mbq and 9.26E-02 mGy/Mbq | Absorbed dose (AD average) Pancreas [1, 4]: 3.11E-02 ± 0.002 mGy/Mbq and 3.11E-02 mGy/Mbq | Absorbed dose (AD average) Red Marrow [1, 4]: 2.38E-02 ± 0.002 mGy/Mbq and 2.38E-02 mGy/Mbq | Absorbed dose (AD average) Salivary Glands [1, 4]: 1.03E-01 ± 0.004 mGy/Mbq and 1.03E-01 mGy/Mbq | Absorbed dose (AD average) Small Intestine [1, 4]: 4.17E-02 ± 0.01 mGy/Mbq and 4.17E-02 mGy/Mbq | Absorbed dose (AD average) Spleen [1, 4]: 2.87E-02 ± 0.01 mGy/Mbq and 2.87E-02 mGy/Mbq | Absorbed dose (AD average) Total Body [1, 4]: 3.25E-02 ± 0.003 mGy/Mbq and 3.25E-02 mGy/Mbq
